Laboratory results as given in patent publication US20230263742A1, “A LIPID” (Stemirna Therapeutics Co., Ltd., priority 2021, published 2023).

What was measured:
A20 cells = test: In vitro cell Luc expression, A20; format: cell-based; conditions: 100 ng Luc mRNA-LNP, 24 h
Protocol: In vitro cell expression evaluation method: C2C12 cells, HepG2 cells, A20 cells were cultured, and 100,000 cells per well were plated on a 96-well plate. 100 ng of LNP samples were mixed with the cells and incubated for 24 hours (n=3), and then the expression was detected using luciferase quantitative kit 24 h after administration.

cells = test: Cytotoxicity, CCK-8 cell viability; format: cell-based; conditions: 200 ng LNP, 24 h, CCK-8, vs cells blank
Protocol: Evaluation method of cytotoxicity: 200 ng of LNP samples were mixed with cells and incubated for 24 h, then the viability was detected using CCK-8 cell viability detection kit. 10 μl of CCK-8 detection reagent was added to the transfected cells and the OD value was detected using a microplate reader at a detection wavelength of 450 nm. The cell viability percentage is obtained by comparing the OD value with that of the cells blank.

Balb/C mice = test: In vivo Luc expression after tail vein injection of Luc mRNA-LNP; conditions: 5 μg Luc mRNA-LNP tail vein, 6 hours
Protocol: In vivo expression evaluation method: 5 μg Luc (luciferase) mRNA-LNP solution of SW-II-118, SW-120, or SW-121 were injected into the tail vein of Balb/C mice. 6 hours after the administration, the mice are injected 0.15 mg/kg of […] substrate intraperitoneally. Within 15 minutes after the injection of the substrate, the fluorescence signal intensity was tested under a small animal in vivo imaging instrument.

## CCCCCCCCC(CCCCCCCC)OC(=O)CCCCCCCN(CCO)CCCCCCCC(=O)OCCc1ccc(CCCCCCC)cc1 [SW-II-121]
A20 cells; phospholipid DAPC
  A20 cell, in vitro expression: 1744.5
A20 cells; phospholipid DMPE
  A20 cell, in vitro expression: 9110.5
A20 cells; phospholipid DOPE
  A20 cell, in vitro expression: 4244.5
A20 cells; phospholipid DPPC
  A20 cell, in vitro expression: 9098
A20 cells; phospholipid DPPE
  A20 cell, in vitro expression: 27832
A20 cells; phospholipid DSPC
  A20 cell, in vitro expression: 8006.5
A20 cells; phospholipid DSPE
  A20 cell, in vitro expression: 508.5
cells; phospholipid DAPC
  Viability (%): 111.1%
cells; phospholipid DMPE
  Viability (%): 108.5%
cells; phospholipid DOPE
  Viability (%): 107.5%
cells; phospholipid DPPC
  Viability (%): 109.64%
cells; phospholipid DPPE
  Viability (%): 108.0%
cells; phospholipid DSPC
  Viability (%): 123.3%
cells; phospholipid DSPE
  Viability (%): 137.0%
Balb/C mice; phospholipid DAPC
  In vivo expression: 156336666.7 p/sec/cm^2/sr
Balb/C mice; phospholipid DMPE
  In vivo expression: 78216666.7 p/sec/cm^2/sr
Balb/C mice; phospholipid DOPE
  In vivo expression: 47516666.7 p/sec/cm^2/sr
Balb/C mice; phospholipid DPPC
  In vivo expression: 36323333.3 p/sec/cm^2/sr
Balb/C mice; phospholipid DPPE
  In vivo expression: 46183333.3 p/sec/cm^2/sr
Balb/C mice; phospholipid DSPC
  In vivo expression: 12494333.3 p/sec/cm^2/sr
Balb/C mice; phospholipid DSPE
  In vivo expression: 19344666.7 p/sec/cm^2/sr

## CCCCCCCCC(CCCCCCCC)OC(=O)CCCCCCCN(CCO)CCCCCCCC(=O)OCCc1ccc(CCCCCC)cc1 [SW-II-120]
A20 cells; phospholipid DAPC
  A20 cell, in vitro expression: 1764
A20 cells; phospholipid DMPE
  A20 cell, in vitro expression: 37055.5
A20 cells; phospholipid DOPE
  A20 cell, in vitro expression: 3578
A20 cells; phospholipid DPPC
  A20 cell, in vitro expression: 7015
A20 cells; phospholipid DPPE
  A20 cell, in vitro expression: 54823
A20 cells; phospholipid DSPC
  A20 cell, in vitro expression: 8101.5
A20 cells; phospholipid DSPE
  A20 cell, in vitro expression: 1599
cells; phospholipid DAPC
  Viability (%): 99.0%
cells; phospholipid DMPE
  Viability (%): 87.9%
cells; phospholipid DOPE
  Viability (%): 115.0%
cells; phospholipid DPPC
  Viability (%): 102.9%
cells; phospholipid DPPE
  Viability (%): 107.1%
cells; phospholipid DSPC
  Viability (%): 102.3%
cells; phospholipid DSPE
  Viability (%): 97.9%
Balb/C mice; phospholipid DAPC
  In vivo expression: 39073333.3 p/sec/cm^2/sr
Balb/C mice; phospholipid DMPE
  In vivo expression: 49736666.7 p/sec/cm^2/sr
Balb/C mice; phospholipid DOPE
  In vivo expression: 5083666.7 p/sec/cm^2/sr
Balb/C mice; phospholipid DPPC
  In vivo expression: 21307300.0 p/sec/cm^2/sr
Balb/C mice; phospholipid DPPE
  In vivo expression: 7056000.0 p/sec/cm^2/sr
Balb/C mice; phospholipid DSPC
  In vivo expression: 58040000.0 p/sec/cm^2/sr
Balb/C mice; phospholipid DSPE
  In vivo expression: 128056666.7 p/sec/cm^2/sr

## CCCCCCCCC(CCCCCCCC)OC(=O)CCCCCCCN(CCO)CCCCCCCC(=O)OCCc1ccc(CCCC)cc1 [SW-II-118]
A20 cells; phospholipid DAPC
  A20 cell, in vitro expression: 5337
A20 cells; phospholipid DMPE
  A20 cell, in vitro expression: 34438
A20 cells; phospholipid DOPE
  A20 cell, in vitro expression: 2295
A20 cells; phospholipid DPPC
  A20 cell, in vitro expression: 12326.5
A20 cells; phospholipid DPPE
  A20 cell, in vitro expression: 1627.5
A20 cells; phospholipid DSPC
  A20 cell, in vitro expression: 9068
A20 cells; phospholipid DSPE
  A20 cell, in vitro expression: 3748
cells; phospholipid DAPC
  Viability (%): 104.0%
cells; phospholipid DMPE
  Viability (%): 110.8%
cells; phospholipid DOPE
  Viability (%): 98.7%
cells; phospholipid DPPC
  Viability (%): 105.4%
cells; phospholipid DPPE
  Viability (%): 162.7%
cells; phospholipid DSPC
  Viability (%): 103.0%
cells; phospholipid DSPE
  Viability (%): 113.9%
Balb/C mice; phospholipid DAPC
  In vivo expression: 8658333.3 p/sec/cm^2/sr
Balb/C mice; phospholipid DMPE
  In vivo expression: 23780.0 p/sec/cm^2/sr
Balb/C mice; phospholipid DOPE
  In vivo expression: 38066666.7 p/sec/cm^2/sr
Balb/C mice; phospholipid DPPC
  In vivo expression: 34323333.3 p/sec/cm^2/sr
Balb/C mice; phospholipid DPPE
  In vivo expression: 25176.7 p/sec/cm^2/sr
Balb/C mice; phospholipid DSPC
  In vivo expression: 40156666.7 p/sec/cm^2/sr
Balb/C mice; phospholipid DSPE
  In vivo expression: 25383333.3 p/sec/cm^2/sr
